According to US9056847B2, “Activity based probes (ABPs) interacting with glycosidases” (ACADEMISCH MEDISCH CENTRUM BIJ UNIVERSITEIT VAN AMSTERDAM, priority 2010, dated 2015):

Target: GBA1 (Homo sapiens (Human), UniProt P04062)
Assay: Kinetic constants of GBA1 inhibition (Table 2)
Assay type: biochemical
Details: Table 2 kinetic constants

GBA1, sequence (P04062 40-536): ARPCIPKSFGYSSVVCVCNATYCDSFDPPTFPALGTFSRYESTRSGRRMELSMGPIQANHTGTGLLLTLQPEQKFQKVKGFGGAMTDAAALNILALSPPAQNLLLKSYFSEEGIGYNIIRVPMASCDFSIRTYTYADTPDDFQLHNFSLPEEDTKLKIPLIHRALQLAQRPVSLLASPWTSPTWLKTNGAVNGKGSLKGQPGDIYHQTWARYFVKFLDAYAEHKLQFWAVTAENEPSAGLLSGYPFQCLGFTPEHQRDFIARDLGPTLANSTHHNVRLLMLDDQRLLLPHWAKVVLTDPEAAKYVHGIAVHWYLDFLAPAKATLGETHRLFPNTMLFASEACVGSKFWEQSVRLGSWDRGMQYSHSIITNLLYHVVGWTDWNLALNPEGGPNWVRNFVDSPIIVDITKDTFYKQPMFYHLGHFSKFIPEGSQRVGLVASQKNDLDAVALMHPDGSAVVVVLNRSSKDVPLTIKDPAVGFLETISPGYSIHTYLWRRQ

[N-]=[N+]=NC[C@@H]1[C@@H](O)[C@H](O)[C@@H](O)[C@@H]2O[C@H]12 [KY170, (2S,3R,4S,5S)-8-azido-8-deoxy-cyclophellitol]
ki: 0.0237 min⁻¹
